System: 556581-035-R-J1-PDC complex spheroid growth
Assay: Anticancer human tumor 556581-035-R-J1-PDC patient-derived ovarian carcinoma cell line growth inhibition [Asc]
Conditions: for viability, T/C: stronger effect = lower value
Procedure: Multicellular complex tumor spheroid response to apoptosis pathway targeting inhibitors Alrizomadlin, Pelcitoclax, and Dasminapant in combination with a variety of drugs and investigational agents in selected tumor cell lines
The MDM2 inhibitor alrizomadlin, the Bcl-2/Bcl-xL inhibitor pelcitoclax, and the IAPs inhibitor dasminapant were evaluated both individually and in combination with standard of care and investigational anticancer small molecules within a complex spheroid model of solid tumors. . Complex spheroids include a stromal component modeled by human endothelial cells (HUVEC) and fibroblasts modeled by human mesenchymal stem cells (MSCs). The concentration ranges selected for each drug and investigational agent were based upon clinically achievable concentrations if the clinical Cmax of the agent was known.
Compounds. The drugs and investigational agents: alrizomadlin (APG-115; NSC831270), pelcitoclax (APG-1252; NSC835773), dasminapant (APG-1387;NSC834197), TAK-243 (NSC785004), copanlisib (NSC809693), olaparib (NSC753686), talazoparib (NSC767125), cobimetinib (NSC 768068), eltanexor (KPT-8602, NSC 794443), abemaciclib (NSC 768073), sotorasib (NSC818433), adagrasib (NSC 831453), MRTX-1133 (NSC 836407), Iadademestat (ORY1001, NSC 806812), and RMC-4630 (NSC839698), were obtained from the NCI Developmental Therapeutics Program Chemical Repository. The FDA-approved anticancer drug set is available from the Developmental Therapeutics Program at https://dtp.cancer.gov/organization/dscb/obtaining/available plates.htm. […] The stock solutions were prepared in dimethyl sulfoxide (DMSO, Sigma-Aldrich, St. Louis, MO, cat. D2650) at 800-fold the tested concentration and stored at -70 degrees C prior to their use. All drugs and investigational agents were tested over a range starting from a high concentration at or near the clinical Cmax and decreasing in half-log increments. If the clinical Cmax for an agent had not been determined, the highest concentration tested was 10 microM.
The patient-derived cancer (PDC) cell lines include five colon adenocarcinomas: 186277-243-T-J2-PDC, 616215-338-R-J1-PDC, 439559-082-T-J2-PDC, 463943-066-T-J2-PDC, and 519858-162-T-J1-PDC; three pancreatic carcinomas: 323965-272-R-J2-PDC, 521955-158-R6-J3-PDC, and 521955-158-R2-J5-PDC; two uterine sarcomas: 327498-152-R-J2-PDC and 993429-296-R-J1-PDC; two rhabdomyosarcomas: 755483-174-R-J1-PDC and 772245-204-R-J1-PDC; two soft tissue sarcomas: 126254-015-R-J1-PDC and 494315-158-R-J1-PDC; two malignant fibrous histiocytomas: 317291-083-R-J1-PDC and 596521-263-R-J1-PDC; two breast carcinomas: 171881-019-R-J1-PDC and 885512-296-R-J2-PDC; and one ovarian carcinoma: 6556581-035-R-J-PDC were obtained from the NCI PDMR, (https://pdmr.cancer.gov). The established cell lines HSSY-2 synovial sarcoma (RRID:CVCL 8719), SYO-1 synovial sarcoma (RRID:CVCL_7146), MPNST malignant peripheral neural sheath tumor were obtained from the Sloan Kettering Institute. The following established cell lines were purchased from the American Type Culture Collection (ATCC, Manassas, VA), Sor the received from the NCI repository:, PANC-1 pancreatic carcinoma (CRL-1469, RRID:CVCL_0480), OVCAR-5 ovarian carcinoma (RRID:CVCL_1628), OVCAR-8 ovarian carcinoma (RRID:CVCL_1629), , MCF-7 breast carcinoma (CRL-12584, RRID:CVCL_0031), MDA-MB-231 breast carcinoma (CRL-12532, RRID:CVCL_0062), NCI-H1876 small cell lung carcinoma (CRL-5902, RRID:CVCL_1503), NCI-H510A small cell lung carcinoma (HTB-184, RRID:CVCL_1565), NCI-H1417 (CRL-5869, RRID:CVCL_1469), and NCI-H196 small cell lung carcinoma (CRL-5823, RRID:CVCL_1509). Dr. Peter Houghton (Greehey Children's Cancer Research Institute, University of Texas Health Science Center, San Antonio, TX) provided Rh-18 rhabdomyosarcoma (RRID:CVCL_1659). Pooled donor human umbilical vein endothelial cells (HUVEC, Lonza, cat. CC-2519) and human mesenchymal stem cells (hMSC, Lonza, cat. PT-2501) were purchased from Lonza (Walkersville, MD).
Cell Culture. […]
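Note: spheroids exposed to agents for 7 days before viability read.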

Q: How did the viability, T/C (compound 0.1 µM) turn out when Cc1c(S(C)(=O)=O)c(-c2cc(F)cc(N3CCN(c4ccc(NS(=O)(=O)c5ccc(NC(CCN6CCC(C(=O)OCCCP(=O)(O)O)CC6)CSc6ccccc6)c(S(=O)(=O)C(F)(F)F)c5)cc4)CC3)c2)c(-c2ccc(Cl)cc2)n1C(C)C (stereo unspecified) was run?
A: The viability, T/C was 80.6% [middle of 14 runs].

Q: What about the viability, T/C (compound 0.316 µM) of the same compound?
A: Its viability, T/C is 73.5% [middle of 14 runs].

Q: What about the viability, T/C (compound 1 µM) of the same compound?
A: The viability, T/C was 66.1% [middle of 14 runs].

Q: And the viability, T/C (compound 3.16 µM)?
A: Its viability, T/C is 66.3% [middle of 14 runs].

Q: What about the viability, T/C (compound 10 µM) of the same compound?
A: Its viability, T/C is 61.9% [middle of 14 runs].

Q: And the IC50 (compound alone, run of 10/11/2022)?
A: Its IC50 is > 10000 nM.

Q: Which results are given for NC(=O)C(=Cn1cnc(-c2cc(C(F)(F)F)cc(C(F)(F)F)c2)n1)c1cncnc1 + CCN1C(C(=O)NC23CCC(C(=O)O)(CC2)CC3)C(c2cccc(Cl)c2F)C2(C(=O)Nc3cc(Cl)ccc32)C12CCCCC2?
A: IC50 (curve of first compound, second compound 0.03 µM): > 300 nM; IC50 (curve of first compound, second compound 0.0949 µM): > 300 nM; IC50 (curve of first compound, second compound 0.3 µM): > 300 nM; IC50 (curve of first compound, second compound 0.949 µM): > 300 nM; IC50 (curve of first compound, second compound 3 µM): > 300 nM; viability, T/C (second compound 0.03 µM, first compound 0.000949 µM): 81%; viability, T/C (second compound 0.03 µM, first compound 0.003 µM): 96.2%; viability, T/C (second compound 0.03 µM, first compound 0.00949 µM): 87.3%; viability, T/C (second compound 0.03 µM, first compound 0.03 µM): 83.1%; viability, T/C (second compound 0.03 µM, first compound 0.0949 µM): 86.6%; viability, T/C (second compound 0.03 µM, first compound 0.3 µM): 86.6%; viability, T/C (second compound 0.0949 µM, first compound 0.000949 µM): 97.6%; viability, T/C (second compound 0.0949 µM, first compound 0.003 µM): 99.7%; viability, T/C (second compound 0.0949 µM, first compound 0.00949 µM): 92.9%; viability, T/C (second compound 0.0949 µM, first compound 0.03 µM): 86.7%; viability, T/C (second compound 0.0949 µM, first compound 0.0949 µM): 90.8%; viability, T/C (second compound 0.0949 µM, first compound 0.3 µM): 101%; viability, T/C (second compound 0.3 µM, first compound 0.000949 µM): 103%; viability, T/C (second compound 0.3 µM, first compound 0.003 µM): 91.6%; viability, T/C (second compound 0.3 µM, first compound 0.00949 µM): 94.9%; viability, T/C (second compound 0.3 µM, first compound 0.03 µM): 87.3%; viability, T/C (second compound 0.3 µM, first compound 0.0949 µM): 86.7%; viability, T/C (second compound 0.3 µM, first compound 0.3 µM): 97.1%; viability, T/C (second compound 0.949 µM, first compound 0.000949 µM): 88.4%; viability, T/C (second compound 0.949 µM, first compound 0.003 µM): 108%; viability, T/C (second compound 0.949 µM, first compound 0.00949 µM): 92.5%; viability, T/C (second compound 0.949 µM, first compound 0.03 µM): 101%; viability, T/C (second compound 0.949 µM, first compound 0.0949 µM): 90%; viability, T/C (second compound 0.949 µM, first compound 0.3 µM): 91.6%; viability, T/C (second compound 3 µM, first compound 0.000949 µM): 83.5%; viability, T/C (second compound 3 µM, first compound 0.003 µM): 87.9%; viability, T/C (second compound 3 µM, first compound 0.00949 µM): 81.7%; viability, T/C (second compound 3 µM, first compound 0.03 µM): 87.7%; viability, T/C (second compound 3 µM, first compound 0.0949 µM): 78.3%; viability, T/C (second compound 3 µM, first compound 0.3 µM): 61.2%

Source: PubChem BioAssay AID1963450 (Molecular Pharmacology Branch, DTP, NCI, 2024)
